This note sets out measurements from patent US8791132B2, “Compounds and methods for treatment of hypertension” (Medivation Technologies, Inc., priority 2011, dated 2014).

Molecules are shown by their SMILES.

Assay [1] deals with T1, rat adrenergic α1B receptor (Rattus norvegicus, UniProt P15823).
T1 construct: rat adrenergic α1B receptor obtained from Wistar Rat liver; from tissue; host or cells: Wistar rat liver
T1 sequence (P15823 1-515): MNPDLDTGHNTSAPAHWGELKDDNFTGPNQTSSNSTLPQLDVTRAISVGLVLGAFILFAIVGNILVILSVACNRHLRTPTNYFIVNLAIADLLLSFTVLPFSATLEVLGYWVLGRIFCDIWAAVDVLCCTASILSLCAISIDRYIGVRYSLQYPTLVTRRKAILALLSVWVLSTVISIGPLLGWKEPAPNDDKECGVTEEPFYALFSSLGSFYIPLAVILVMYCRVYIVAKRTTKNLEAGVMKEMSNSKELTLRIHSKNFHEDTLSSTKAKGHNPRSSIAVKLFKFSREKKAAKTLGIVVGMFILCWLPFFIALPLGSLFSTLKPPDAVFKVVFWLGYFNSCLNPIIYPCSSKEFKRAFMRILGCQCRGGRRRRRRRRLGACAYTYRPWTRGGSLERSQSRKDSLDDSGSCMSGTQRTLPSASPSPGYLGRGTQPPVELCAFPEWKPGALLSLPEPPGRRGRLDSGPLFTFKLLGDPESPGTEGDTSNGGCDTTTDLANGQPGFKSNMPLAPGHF
The experiment in a line: Radioligand binding, adrenergic α1B ([3H]Prazosin). The note with it: compound at 0.1 μM, [3H]Prazosin, repeat assays, each datapoint shown; for Percentage inhibition of ligand binding, Adrenergic α1B: 0.1 µM. An outline of the steps:
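Filter binding with Wistar rat liver α1B preparation: test compound plus 0.25 nM [3H]prazosin, 1 h at 25° C in modified Tris-HCl buffer pH 7.4.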

Assay [2] has as its target T2, human recombinant adrenergic α2B receptor (Homo sapiens, UniProt P18089).
T2 construct: expressed in transfected cells; host or cells: CHO-K1
T2 sequence (P18089 1-450): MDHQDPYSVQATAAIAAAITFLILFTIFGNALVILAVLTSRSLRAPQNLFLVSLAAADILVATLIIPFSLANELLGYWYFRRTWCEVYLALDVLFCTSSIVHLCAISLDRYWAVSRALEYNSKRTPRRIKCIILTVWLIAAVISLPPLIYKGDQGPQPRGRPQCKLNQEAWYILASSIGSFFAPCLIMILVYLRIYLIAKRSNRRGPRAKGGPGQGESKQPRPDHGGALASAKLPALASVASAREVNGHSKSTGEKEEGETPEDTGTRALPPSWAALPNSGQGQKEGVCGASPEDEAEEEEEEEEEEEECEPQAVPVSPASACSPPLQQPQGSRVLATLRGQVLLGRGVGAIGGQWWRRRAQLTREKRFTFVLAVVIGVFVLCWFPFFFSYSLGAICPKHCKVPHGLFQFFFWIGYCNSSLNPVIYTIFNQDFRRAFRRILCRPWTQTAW
As to the kind of experiment: Radioligand binding, adrenergic α2B ([3H]Rauwolscine). The note with it: [3H]Rauwolscine, repeat assays, each datapoint shown. An outline of the steps: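 Membranes from CHO-K1 cells expressing human recombinant α2B, in 50 mM Tris-HCl pH 7.4, 12.5 mM MgCl2, 1 mM EDTA, 0.2% BSA, incubated with compound and 2.5 nM [3H]Rauwolscine, 60 min, 25 °C.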

The test system of assay [3] is SH-SY5Y cells. The experiment in a line: Cell viability (MTS reduction) in 4-Br-A23187-treated SH-SY5Y cells. It counts as cell-based. The note with it: MTS reduction capacity. The procedure: After 24 h, cells were depleted from FBS and kept in culture for 24 h before the experiment. Cells were then treated with 4-Br-A23187 (2 μM), hydrogen peroxide (300 μM) or the mitochondrial toxin rotenone (25 μM) in the presence of vehicle or Compound of the Invention for 24 h. Cell death was determined by measurements of LDH release according to the Cytotoxicity Detection KitPlus (Roche, Mannheim, Germany). Cell viability was determined by measuring the capacity of cells to metabolize MTS tetrazolium (MTS) according to the Cytotoxicity Detection KitPlus (Roche, Mannheim, Germany) and MTS reduction is assessed by the CellTiter 96® AQueous One Solution Cell Proliferation assay (Promega Corporation, Madison, Wis., USA). Compounds were screened at 10 nM, using DMSO as vehicle. Assay results for the experiments with hydrogen peroxide are presented as the LDH release (cell death) of untreated cells (control), hydrogen peroxide-treated cells (vehicle), and co-incubation of hydrogen peroxide with Compounds of the Invention treated cells normalized to the vehicle (FIG. 17A). This assay assesses the ability of the test compounds to protect against cell death that is mediated by mitochondrial dysfunction. In the assay, the calcium ionophore 4-Br-A23187 is used to challenge the cells, causing calcium levels to rise in mitochondria, which leads to depolarization and cell death. Test compounds are assessed for their ability to prevent cell death in response to challenge with 4-Br-A23187.
Background: Tetrazolium assays rely on reduction of a dye to a coloured formazan, in cell work by metabolically active cells.

Assay [4] deals with T3, human recombinant adrenergic α2A receptor (Homo sapiens, UniProt P08913).
T3 construct: expressed in transfected cells; host or cells: insect Sf9 cells
T3 sequence (P08913 1-465): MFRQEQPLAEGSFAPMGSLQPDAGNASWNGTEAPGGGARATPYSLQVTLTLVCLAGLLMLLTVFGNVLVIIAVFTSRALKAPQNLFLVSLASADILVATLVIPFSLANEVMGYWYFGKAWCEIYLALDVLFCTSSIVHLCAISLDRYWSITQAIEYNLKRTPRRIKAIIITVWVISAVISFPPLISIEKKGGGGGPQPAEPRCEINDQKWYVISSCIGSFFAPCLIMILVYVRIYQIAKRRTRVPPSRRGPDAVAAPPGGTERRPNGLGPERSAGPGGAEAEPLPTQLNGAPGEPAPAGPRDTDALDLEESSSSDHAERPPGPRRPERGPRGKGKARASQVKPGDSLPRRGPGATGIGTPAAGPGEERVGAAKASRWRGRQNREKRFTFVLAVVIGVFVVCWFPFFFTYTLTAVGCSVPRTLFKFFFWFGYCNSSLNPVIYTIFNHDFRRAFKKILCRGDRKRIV
As to the kind of experiment: Radioligand binding, adrenergic α2A ([3H]MK-912). The note with it: compound at 0.1 μM; [3H]MK-912; repeat assays, each datapoint shown. An outline of the steps:
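Receptor expressed in insect Sf9 cells, assayed in 50 mM Tris-HCl pH 7.4 with 12.5 mM MgCl2 and 2 mM EDTA. Compounds incubated with 1 nM [3H]MK-912 for 60 min at 25 °C; nonspecific binding defined with 10 μM WB-4101. Filter-bound radioactivity counted; values are percent inhibition of specific binding.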

In assay [5] the target is T4, human recombinant adrenergic α1D receptor (Homo sapiens, UniProt P25100).
T4 construct: expressed in transfected cells; host or cells: HEK-293
T4 sequence (P25100 1-572): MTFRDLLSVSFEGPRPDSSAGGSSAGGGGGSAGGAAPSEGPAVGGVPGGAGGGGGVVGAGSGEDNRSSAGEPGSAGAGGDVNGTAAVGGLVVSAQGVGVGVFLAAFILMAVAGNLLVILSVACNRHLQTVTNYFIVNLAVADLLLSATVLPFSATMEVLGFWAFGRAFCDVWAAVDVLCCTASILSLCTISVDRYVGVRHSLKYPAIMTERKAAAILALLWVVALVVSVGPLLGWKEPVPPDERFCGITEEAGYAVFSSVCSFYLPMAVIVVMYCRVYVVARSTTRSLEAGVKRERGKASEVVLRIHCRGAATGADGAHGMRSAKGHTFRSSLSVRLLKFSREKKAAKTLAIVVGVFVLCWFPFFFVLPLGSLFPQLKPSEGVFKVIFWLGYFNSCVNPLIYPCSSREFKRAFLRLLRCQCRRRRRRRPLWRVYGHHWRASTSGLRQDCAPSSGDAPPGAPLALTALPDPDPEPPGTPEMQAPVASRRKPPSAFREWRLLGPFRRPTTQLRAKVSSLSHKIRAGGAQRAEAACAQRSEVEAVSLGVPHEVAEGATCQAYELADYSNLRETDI
As to the kind of experiment: Radioligand binding, adrenergic α1D ([3H]Prazosin). The note with it: compound at 0.1 μM; [3H]Prazosin; repeat assays, each datapoint shown; read-out: Percentage inhibition of ligand binding, Adrenergic α1D. The procedure:
Compounds were incubated with 0.6 nM [3H]Prazosin for 60 min at 25° C. Non-specific binding was estimated in the presence of 10 μM phentolamine. Receptor proteins were filtered and washed, the filters were then counted to determine [3H]Prazosin specifically bound. […] Biochemical assay results are presented as the percent inhibition of specific binding in Table B1.

Assay [6] deals with conscious New Zealand White rabbits. As to the kind of experiment: Blood pressure in conscious rabbits. The settings on record: i.v. cumulative dose-response study, Compound 3b maximum at 10 mg/kg. In kind it is in vivo, rabbit. The procedure: Methods: Four adult New Zealand White rabbits of both sexes were chosen for these studies. […] To unveil peripheral effects of Compound 3b, two sets of acute studies were conducted in rabbits. […] A single intravenous bolus dose at 3 mg/kg was given and a time-course study was conducted in the second set of studies. Systolic, […], mean and […] blood pressures were recorded in both the studies. […] In a separate set of studies, Clonidine (positive control) was tested where all experimental procedures including dose-regimen were identical to that of the studies with […].

Setting [7] is: 4-Br-A23187 2 μM, 24 h, compounds at 10 nM.

One may read the inhibition as the change of the read-out against control, counted positive when it falls.

Consider `Cc1ccc2c(c1)c1c(n2CC(O)c2ccncc2)CCNC1` (centres unmarked) [compound 39, 2-(8-methyl-1,2,3,4-tetrahydro-pyrido[4,3-b]indol-5-yl)-1-pyridin-4-yl-ethanol], for which the “Percentage inhibition of ligand binding, Adrenergic α1B” value in assay [1] stood at 25%. Besides, the “Percentage inhibition of ligand binding, Adrenergic α2B” value in assay [2] (compound at 0.03 μM, 0.03 µM) amounted to 89%. Also, the “Relative cell viability protection” value in assay [3] (setting [7]) was determined as 0.36. Further, in assay [4], the “Percentage inhibition of ligand binding, Adrenergic α2A” value is recorded as 1%.
Take `CN1CCc2c(c3cc(Cl)ccc3n2CC(O)c2ccncc2)C1` (centres unmarked) [compound 4]: in assay [1], the “Percentage inhibition of ligand binding, Adrenergic α1B” value turned out to be 60%. Further, the inhibition at 0.1 µM in assay [1] (read-out: Percentage inhibition of ligand binding, Adrenergic α1B) worked out at 51%; in assay [2] (compound at 0.1 μM, read-out: Percentage inhibition of ligand binding, Adrenergic α2B), 101%; in assay [5] it was 12%. The “Relative cell viability protection” value in assay [3] (setting [7]) worked out at 0.3463.
On to `N#CC(C#N)=NNc1ccc(OC(F)(F)F)cc1` [FCCP, p-trifluoromethoxyphenylhydrazone, reference compound], for which the “Relative cell viability protection” value in assay [3] (FCCP at 10 μM for 30 min as a control) is 0.1035.
In the case of `Clc1cccc(Cl)c1N=C1NCCN1` [Clonidine, clonidine, reference compound], the “maximum arterial blood pressure drop” value in assay [6] is reported as −6 mmHg.
